Like-named read-outs stand apart in the source and are kept apart here.
Experiments:
[1] = system: BT474 cells; assay: Sulforhodamine B (SRB) growth inhibition assay; format: cell-based; settings: Homo sapiens, BT-474, activity range
Procedure: A growth inhibition assay was also employed for the evaluation of test compounds:
Assessment of Cytotoxicity by Sulforhodamine B (SRB) Assay: Calculation of 50% Inhibitory Concentration (IC50).
• 1) Determine cell number by haemocytometer. • 2) Using an 8 channel multipipettor, add 160 μl of the cell suspension (3600 cells/well or 2×10^4 cells/ml) to each well of a 96-well microtitre plate. • 3) Incubate overnight at 37° C. in a CO2 incubator.
• 4) Stock solutions of drugs are prepared, and serial dilutions of each drug are performed in medium to give final concentrations in wells. • 5) Using a multipipettor, 40 μl of drug (at 5× final concentration) is added to quadruplicate wells. • 6) Control wells are at either side of the 96 well plates, where 40 μl of medium is added. • 7) Incubate plates in CO2 incubator for […].
• 8) Tip off medium into sink and immerse plate slowly into 10% ice cold trichloroacetic acid (TCA). Leave for about 30 mins on ice. • 9) Wash plates three times in tap water by immersing the plates into baths of tap water and tipping it off. • 10) Dry in incubator. • 11) Add 100 μl of 0.4% SRB in 1% acetic acid to each well (except the last row (right hand) of the 96 well plate, this is the 0% control, ie no drug, no stain. The first row will be the 100% control with no drug, but with stain). Leave for 15 mins. • 12) Wash off unbound SRB stain with four washes of 1% acetic acid. • 13) Dry plates in incubator. • 14) Solubilised SRB using […] of 10 mM Tris base and put plates on plate shaker for 5 mins. • 15) Determine absorbance at 540 nm using a plate reader. Calculate mean absorbance for quadruplicate wells and express as a percentage of value for control, untreated wells. • 16) Plot % absorbance values versus log drug concentration and determine the GI50., ie the concentration of test compound required to inhibit growth of the cells by 50%.
The compounds tested in the above assay were assigned to one of three activity ranges, namely A=<0.5 μM; B=0.5 μM to 10 μM; C=>10 μM, and the results for six of the compounds of the invention are reported in Table 2.

[2] = target: T1, human full-length HSP90 (Homo sapiens, UniProt P08238); assay: Fluorescence polarization (FP) binding assay; settings: competitive displacement of fluorescein-labelled probe from human full-length HSP90, activity range
T1 construct: E. coli expressed human full-length HSP90 protein, purified >95%; made in house; host or cells: E. coli
Excerpt: Fluorescence Polarization Assay
Fluorescence polarization {also known as fluorescence anisotropy} measures the rotation of a fluorescing species in solution, where the larger molecule the more polarized the fluorescence emission. When the fluorophore is excited with polarized light, the emitted light is also polarized. The molecular size is proportional to the polarization of the fluorescence emission.
The fluoroscein-labelled probe—
binds to HSP90 {full-length human, full-length yeast or N-terminal domain HSP90} and the anisotropy {rotation of the probe:protein complex} is measured.
Test compound is added to the assay plate, left to equilibrate and the anisotropy measured again. Any change in anisotropy is due to competitive binding of compound to HSP90, thereby releasing probe.
Stored at room temperature. • 3) BSA (bovine serum albumen) 10 mg/ml (New England Biolabs # B9001S) • 4) 20 mM probe in 100% DMSO stock concentration. Stored in the dark at RT. Working concentration is 200 nM diluted in AR water and stored at 4° C.
• 1) Add 100 μl×buffer to wells 1A and 12A(=FP BLNK) • 2) Prepare assay mix—all reagents are kept on ice with a lid on the bucket as the probe is light-sensitive.
• 3) Aliquot 100 μl assay mix to all other wells • 4) Seal plate and leave in dark at room temp for 20 minutes to equilibrate
This gives 2.5 mM {50×} stock cpd−assuming cpds 20 mM. • 4) Repeat for wells A2 to A10. Control in columns 11 and 12. • 5) Transfer 5 μl from row A to row B—not column 12. Mix well. • 6) Transfer 5 μl from row B to row C. […] Add 2 μl of 100 mM standard cpd to wells B12-H12 {is positive control} • 13) The Z′ factor is calculated from zero controls and positive wells.

[3] = read-out: ACTIVITY* (Activity in the FP binding assay)
[4] = read-out: activity in the fluorescence polarization assay

T1 sequence (P08238 whole entry): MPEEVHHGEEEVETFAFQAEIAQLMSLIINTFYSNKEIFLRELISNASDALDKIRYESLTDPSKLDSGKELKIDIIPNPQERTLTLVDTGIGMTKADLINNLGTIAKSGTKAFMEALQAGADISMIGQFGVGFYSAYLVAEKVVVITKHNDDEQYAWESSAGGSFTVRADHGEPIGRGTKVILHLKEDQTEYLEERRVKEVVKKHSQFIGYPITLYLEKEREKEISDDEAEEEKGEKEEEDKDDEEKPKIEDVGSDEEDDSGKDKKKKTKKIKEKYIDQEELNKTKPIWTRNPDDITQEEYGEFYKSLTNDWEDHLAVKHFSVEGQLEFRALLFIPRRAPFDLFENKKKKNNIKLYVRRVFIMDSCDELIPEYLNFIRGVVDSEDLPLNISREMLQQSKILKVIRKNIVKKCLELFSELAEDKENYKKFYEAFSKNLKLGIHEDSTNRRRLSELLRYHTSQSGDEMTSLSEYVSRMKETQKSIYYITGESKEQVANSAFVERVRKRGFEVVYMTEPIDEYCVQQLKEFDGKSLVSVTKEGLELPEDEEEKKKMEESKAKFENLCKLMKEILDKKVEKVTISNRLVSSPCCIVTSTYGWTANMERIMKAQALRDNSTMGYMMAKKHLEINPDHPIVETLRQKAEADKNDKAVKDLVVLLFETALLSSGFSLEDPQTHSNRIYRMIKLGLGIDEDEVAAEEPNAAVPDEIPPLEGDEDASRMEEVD

Structure (SMILES) | GI50 [1] | IC50 [2, 3] | IC50 [2, 4]
CCN(CC)CCOc1nc(-c2cc(OC)c(Cl)cc2Cl)c2c(C#N)c[nH]c2n1 [Example 24, 4-(2,4-Dichloro-5-methoxy-phenyl)-2-(2-diethylamino-ethoxy)-7H-pyrrolo[2,3-d]pyrimidine-5-carbonitrile] | 0.5 to 10 µM |  | < 0.5 µM
COc1cc(Cl)c(-c2nc(OCCN3CCC(F)(F)CC3)nc3[nH]cc(C#N)c23)cc1OC [Example 31, 4-(2-Chloro-4,5-dimethoxy-phenyl)-2-[2-(4,4-difluoro-piperidin-1-yl)-ethoxy]-7H-pyrrolo[2,3-d]pyrimidine-5-carbonitrile] | < 0.5 µM |  | < 0.5 µM
CCN(CC)CCOc1cc(-c2nc(SCC(=O)NC)nc3[nH]cc(C#N)c23)c(Cl)cc1Cl [Example 28, 2-{5-Cyano-4-[2,4-dichloro-5-(2-diethylamino-ethoxy)-phenyl]-7H-pyrrolo[2,3-d]pyrimidin-2-ylsulfanyl}-N-methyl-acetamide] | < 0.5 µM |  | < 0.5 µM
CCN(CC)CCSc1nc(-c2ccc(F)cc2C)c2c(C#N)c[nH]c2n1 [Example 19, 2-(2-Diethylamino-ethylsulfanyl)-4-(4-fluoro-2-methyl-phenyl)-7H-pyrrolo[2,3-d]pyrimidine-5-carbonitrile] | 0.5 to 10 µM |  | < 0.5 µM
COc1cc(-c2nc(OCCN3CCCC3=O)nc3[nH]cc(C#N)c23)c(Cl)cc1Cl [Example 25, 4-(2,4-Dichloro-5-methoxy-phenyl)-2-[2-(2-oxo-pyrrolidin-1-yl)-ethoxy]-7H-pyrrolo[2,3-d]pyrimidine-5-carbonitrile] |  |  | < 0.5 µM
CSc1nc(-c2ccc(F)cc2C)c2c(C#N)c[nH]c2n1 [Example 4, 4-(2-methyl-4-fluoro-phenyl)-2-methylsulfanyl-7H-pyrrolo[2,3-d]pyrimidine-5-carbonitrile] |  |  | < 0.5 µM

The remaining lines, values ahead:

GI50 [1] | IC50 [2, 3] | IC50 [2, 4] | Structure (SMILES)
0.5 to 10 µM | 0.5 to 10 µM |  | CC(C)Sc1nc(-c2cc(OCc3ccccc3)c(Cl)cc2Cl)c2c(C#N)c[nH]c2n1 [Example 51]
< 0.5 µM | < 0.5 µM |  | COc1cc(Cl)c(-c2nc(SC)nc3[nH]cc(C#N)c23)cc1OCCN1CC[C@@H](F)C1 [Example 72]
 | < 0.5 µM |  | CCc1nc(-c2cc(OCCN(CC)CC)c(OC)cc2Cl)c2c(C#N)c[nH]c2n1 [Example 67]
 | < 0.5 µM |  | COc1cc(Cl)c(-c2nc(OCCN3CCOCC3)nc3[nH]cc(C#N)c23)cc1OC [Example 61]

Source: patent publication US20090163490A1, “Pyrrolopyrimidine Derivatives Used As HSP90 Inhibitors” (VERNALIS (R&D) LTD., priority 2006, published 2009)
